Measurements published in patent US8710056B2, “Pyridazine compounds for controlling invertebrate pests” (BASF SE, priority 2009, dated 2014).

Key:
Format in all cases: in vivo
[1] = system: Cotton aphid (Aphis gossypii, mixed life stages); test: Activity against cotton aphid, foliar spray on infested cotton plants; details: 120 h, determined after 5 days, read-out: mortality in comparison with untreated controls
Procedure: II.1 Activity Against Cotton Aphid (Aphis gossypii, Mixed Life Stages)
(§1) The active compounds were formulated in cyclohexanone as a 10,0000 ppm solution supplied in 1.3 ml ABgene® tubes. These tubes were inserted into an automated electrostatic sprayer equipped with an atomizing nozzle and they served as stock solutions for which lower dilutions were made in 50% acetone:50% water (v/v). A nonionic surfactant (Kinetic®) was included in the solution at a volume of 0.01% (v/v).
Cotton plants at the cotyledon stage were infested with aphids prior to treatment by placing a heavily infested leaf from the main aphid colony on top of each cotyledon. Aphids were allowed to transfer overnight to accomplish an infestation of 80-100 aphids per plant and the host leaf was removed. The infested plants were then sprayed by an automated electrostatic plant sprayer equipped with an atomizing spray nozzle. The plants were dried in the sprayer fume hood, removed from the sprayer, and then maintained in a growth room under fluorescent lighting in a 24-hr photoperiod at 25° C. and 20-40% relative humidity. Aphid mortality on the treated plants, relative to mortality on untreated control plants, was determined after 5 days.

[2] = system: Green peach aphid (Myzus persicae, mixed life stages); test: Activity against green peach aphid, foliar spray on infested bell pepper plants; details: 120 h, determined after 5 days, read-out: mortality in comparison with untreated controls
Procedure: II.2 Activity Against Green Peach Aphid (Myzus persicae, Mixed Life Stages)
as §1
Bell pepper plants at the first true-leaf stage were infested prior to treatment by placing heavily infested leaves from the main colony on top of the treatment plants. Aphids were allowed to transfer overnight to accomplish an infestation of 30-50 aphids per plant and the host leaves were removed. The infested plants were then sprayed by an automated electrostatic plant sprayer equipped with an atomizing spray nozzle. The plants were dried in the sprayer fume hood, removed, and then maintained in a growth room under fluorescent lighting in a 24-hr photoperiod at 25° C. and 20-40% relative humidity. Aphid mortality on the treated plants, relative to mortality on untreated control plants, was determined after 5 days.

[3] = system: Cowpea aphid (Aphis craccivora); test: Activity against cowpea aphid, spray on potted cowpea plants; details: spray on colonized cowpea plants, population reduction assessed after 24, 72 and 120 hours, read-out: mortality in comparison with untreated controls
Procedure: II.3 Activity Against Cowpea Aphid (Aphis craccivora)
The active compounds were formulated in 50:50 (vol:vol) acetone:water. The test solution was prepared at the day of use.
Potted cowpea plants colonized with 100-150 aphids of various stages were sprayed after the pest population had been recorded. Population reduction was assesed after 24, 72, and 120 hours.

[4] = system: Silverleaf whitefly (bemisia argentifolii, adult); test: Activity against silverleaf whitefly, sprayed cotton plants; details: 72 h, whitefly adults, assessed 3 days after treatment, read-out: mortality in comparison with untreated controls
Procedure: II.4 Activity Against Silverleaf Whitefly (bemisia argentifolii, Adult)
as §1
Cotton plants at the cotyledon stage (one plant per pot) were sprayed by an automated electrostatic plant sprayer equipped with an atomizing spray nozzle. The plants were dried in the sprayer fume hood and then removed from the sprayer. Each pot was placed into a plastic cup and 10 to 12 whitefly adults (approximately 3-5 days old) were introduced. The insects were collected using an aspirator and 0.6 cm, nontoxic Tygon® tubing (R-3603) connected to a barrier pipette tip. The tip, containing the collected insects, was then gently inserted into the soil containing the treated plant, allowing insects to crawl out of the tip to reach the foliage for feeding. Cups were covered with a reusable screened lid (150-micron mesh polyester screen PeCap from Tetko, Inc.). […] Mortality was assessed 3 days after treatment, compared to untreated control plants.

[5] = system: Vetch aphid (Megoura viciae); test: Activity against vetch aphid, bean leaf disks in microtiterplates; details: foliar, 144 h, test solution 2500 mg/L, 2.5 μl sprayed on bean leaf disks, 6 days
Procedure: II.5 Activity Against Vetch Aphid (Megoura viciae)
The active compounds were formulated in 1:3 (vol:vol) DMSO: water with different concentrations of formulated compounds.
Bean leaf disks were placed into microtiterplates filled with 0.8% agar-agar and 2.5 ppm OPUS™. The leaf disks were sprayed with 2.5 μl of the test solution and 5 to 8 adult aphids were placed into the microtiterplates which were then closed and kept at 23±1° C. and 50±5% relative humidity under fluorescent light for 6 days. Mortality was assessed on the basis of vital, reproduced aphids. Aphid mortality and fecundity was then visually assessed.

[6] = system: Green peach aphid (Myzus persicae); test: Activity against green peach aphid through systemic means, artificial diet in 96-well microtiter plates; details: 72 h, read-out: mortality in comparison with untreated controls
Text: II.6 Activity Against Green Peach Aphid (Myzus persicae)
For evaluating control of green peach aphid (Myzus persicae) through systemic means the test unit consisted of 96-well-microtiter plates containing liquid artificial diet under an artificial membrane.
The compounds were formulated using a solution containing 75% v/v water and 25% v/v DMSO. Different concentrations of formulated compounds were pipetted into the aphid diet, using a custom built pipetter, at two replications. After application, 5 to 8 adult aphids were placed on the artificial membrane inside the microtiter plate wells. The aphids were then allowed to suck on the treated aphid diet and incubated at about 23+1° C. and about 50+5% relative humidity for 3 days. Aphid mortality and fecundity was then visually assessed.

[7] = system: Vanda/Orchid thrips (Dichromothrips corbetti); test: Activity against Vanda/orchid thrips, petal dip; details: orchid petals dipped, recorded after 72 hours, read-out: mortality in comparison with untreated controls
Procedure: II.7 Activity Against Vanda/Orchid Thrips (Dichromothrips corbetti)
The active compounds were formulated as a 50:50 (vol:vol) acetone:water solution. Surfactant (Alkamuls EL 620) was added at the rate of 0.1% (vol/vol). Vanda orchids petals were cleaned, washed and air dried prior to spraying. Petals were dipped into the test solution for 3 seconds, air dried, placed inside a resealable plastic and inoculated with 20 adults. The treated petals were kept inside the holding room at 28-29° C. and relative humidity of 50-60%. Percent mortality was recorded after 72 hours.

[8] = system: Green peach aphids (Myzus persicae); test: Hydroponic test against green peach aphids, bare-root green pepper plants; details: bare roots immersed 24 hours, assay 3 days, read-out: mortality in comparison with untreated controls
Procedure: II.7.1 Activity in the Hydroponic Tests Against Green Peach Aphids (Myzus persicae)
(§2) Green pepper plants (Capsicum annuum L., variety ‘California Wonder’) are grown in the greenhouse from seed to the second true leaf stage (BBCH 12) in Scott's MetroMix® 360 (1-2 plants per 2¼″ square pot). Cotyledon leaves are removed and roots are rinsed in tap water until free of soil. The roots are kept moist under a layer of wet paper toweling until all plants have been prepared.
(§3) A 3,400 ppm stock solution is prepared of each test compound using reagent grade acetone as the solvent. Subsequent dilutions of 100 and 10 ppm are prepared from this stock with final dilutions in deionized water in 100 ml amber glass bottles. One bare root plant is placed in each bottle using a foam plug section to centrally secure the stem in the bottleneck. The bare roots are fully-immersed in the test suspensions. Host plants are placed in a plant growth room under continuous GroLux® fluorescent lighting (40W), for 24 hours at 25±2° C. and 20-40% RH.
(§4) After exposure of the bare roots to the test suspensions, pieces of pepper plants infested with green peach aphid (Myzus persicae) are placed on top of the test foliage. Insects are allowed to transfer from the host leaves to accomplish an infestation of 40-50 insects per plant. […] Phytotoxic responses of the host plants are also recorded at this time.

[9] = system: Cotton aphids (Aphis gossypii); test: Hydroponic test against cotton aphids, bare-root cotton plants; details: bare roots immersed 24 hours, assay 3 days, read-out: mortality in comparison with untreated controls
Procedure: II.8 Activity in the Hydroponic Tests against Cotton Aphids (Aphis gossypii)
as §2, with “Cotton” for “Green pepper”, “(Gossypium hirsutum,” for “(Capsicum annuum L.,”, “‘Sure Grow 747’)” for “‘California Wonder’)”, “Metro-Mix®” for “MetroMix®”
as §3
as §4, with “cotton” for “pepper”, “cotton aphids (Aphis gossypii)” for “green peach aphid (Myzus persicae)”

## CN(C(=O)c1conc1C1CC1)c1ccnnc1 [Compound 5, 3-Cyclopropyl-isoxazole-4-carboxylic acid methyl-pyridazin-4-yl-amide]
[1]
  mortality at 300 ppm: ≥ 75%
[2]
  mortality at 300 ppm: ≥ 75%
[3]
  mortality at 300 ppm: ≥ 90%
[4]
  mortality at 300 ppm: ≥ 75%
[5]
  mortality at 2500 µg/mL: ≥ 90%
[6]
  mortality at 2500 ppm: 100%
[7]
  mortality at 500 ppm: ≥ 50%
[8]
  mortality at 100 ppm: ≥ 75%
[9]
  mortality at 100 ppm: ≥ 75%

## O=C(Nc1ccnnc1)c1conc1C1CC1 [Compound 4, 3-Cyclopropyl-isoxazole-4-carboxylic acid pyridazin-4-ylamide]
[1]
  mortality at 300 ppm: ≥ 75%
[2]
  mortality at 300 ppm: ≥ 75%
[3]
  mortality at 300 ppm: ≥ 90%
[4]
  mortality at 300 ppm: ≥ 75%
[5]
  mortality at 2500 µg/mL: ≥ 90%
[6]
  mortality at 2500 ppm: 100%
[7]
  mortality at 500 ppm: ≥ 50%
[8]
  mortality at 100 ppm: ≥ 75%
[9]
  mortality at 100 ppm: ≥ 75%
